Assay results as given in publication PMC6821655, “Marine Archaeon Methanosarcina acetivorans Enhances Polyphosphate Metabolism Under Persistent Cadmium Stress” (Frontiers in Microbiology, 2019).

Target: T1, Ma-PPK (Methanosarcina acetivorans, UniProt Q8TUI6)
T1 construct: recombinant full-length, heterologously overexpressed and purified; gene product 2187 bp (about 728 residues), 81 kDa; tag and host only in supplement
Assay: polyphosphate synthesis, toluidine blue absorbance at […] nm
Assay type: biochemical
Settings: variable Mg-ATP; trimethylsilyl polyP; 37 °C; Km given as unchanged with or without 120 mM K+; read-out: KmATP

T1 sequence (Q8TUI6 entry or part of it): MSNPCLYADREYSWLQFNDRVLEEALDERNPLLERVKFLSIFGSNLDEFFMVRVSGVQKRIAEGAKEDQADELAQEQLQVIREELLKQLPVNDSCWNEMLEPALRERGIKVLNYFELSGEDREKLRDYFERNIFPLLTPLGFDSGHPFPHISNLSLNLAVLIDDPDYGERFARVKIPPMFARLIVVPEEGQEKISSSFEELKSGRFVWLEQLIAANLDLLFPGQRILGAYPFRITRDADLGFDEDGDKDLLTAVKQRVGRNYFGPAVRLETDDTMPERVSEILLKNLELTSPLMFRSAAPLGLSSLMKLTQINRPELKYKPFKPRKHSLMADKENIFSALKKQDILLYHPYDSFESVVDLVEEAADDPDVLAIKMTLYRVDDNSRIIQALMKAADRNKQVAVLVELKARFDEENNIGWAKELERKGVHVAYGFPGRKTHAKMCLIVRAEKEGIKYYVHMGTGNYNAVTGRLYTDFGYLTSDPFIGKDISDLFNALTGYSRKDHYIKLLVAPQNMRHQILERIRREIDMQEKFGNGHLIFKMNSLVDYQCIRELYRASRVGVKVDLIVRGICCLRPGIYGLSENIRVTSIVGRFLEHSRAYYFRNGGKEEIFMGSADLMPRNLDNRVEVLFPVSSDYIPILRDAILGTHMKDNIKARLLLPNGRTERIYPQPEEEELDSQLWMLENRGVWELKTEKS

Nc1ncnc2c1ncn2[C@@H]1O[C@H](COP(=O)(O)OP(=O)(O)OP(=O)(O)O)[C@@H](O)[C@H]1O [ATP]
Km: 1400 µM
